In one data set the test system is S. aureus. Type of data set: cell-based, Staphylococcus aureus. The procedure:
(§1) The in vitro antimicrobial activities of antimicrobial agents were tested using standard NCCLS bacterial and fungi inhibition assays or minimum inhibition concentration (MIC) tests. The MIC value is the lowest concentration of peptide at which the visible growth of test organisms was inhibited and reduced. Overnight cultures of the test organisms were diluted to produce an inoculum containing approximately […] in Meuller-Hinton broth (MHB). From the peptide stock solution, serial dilutions of the peptides into […] were prepared and all wells of a 96-well microtiter plate were subsequently inoculated with the diluted culture of the test organisms. After 18 hours of incubation at 37°, the results were assayed for turbidity as an indicator of cell growth. MIC values for the peptides are shown in Table 3 and Table 4 and FIGS. 1(A), 1(B), 1 (C) and 1 (D) show survival rates for Pac-625 and Pac-626.

Another data set relates to E. coli. Type of data set: cell-based, Escherichia coli. The procedure: as §1
Data set [1] deals with human red blood cells (RBC). Type of data set: cell-based. The procedure: Pac-401, Pac-403, Pac-625 and Pac-626 were tested for hemolysis against human red blood cells (RBC). The RBCs with EDTA were rinsed 3 times with PBS (800 g, 10 min) and re-suspended in PBS. The RBCs were diluted into 10% with phosphate-buffered saline and placed […] into each eppendorf. The peptides dissolved in PBS were then added to 50 μl of 10% solution of RBCs and incubated for an hour at 37° C. (final RBC concentration, 5% v/v). The samples were centrifuged at 800 g for 10 min […]. Various concentrations of peptides were incubated with pretreated RBC and the percentage of hemolysis determined.

The test system of data set [2] is outer membrane of E. coli. As to the kind of experiment: NPN uptake assay, outer membrane permeabilization. Type of data set: cell-based. To be noted: intact cells of E. coli. The procedure: The outer membrane permeabilization activity of the peptide variants was determined by the 1-N-phenylnaphthylamine (NPN) uptake assay, using intact cells of E. coli. […] Since NPN is hydrophobic, it provides a direct measurement of the degree of outer membrane permeability. E. coli take up little or no NPN in a general condition. In the presence of permeabilizer compounds (EDTA, polymyxin B, Neomycin, or antimicrobial peptides), NPN partitioned into the bacterial outer membrane results in an increase in fluorescence. Fluorescence will vary with the concentration of peptide.
One ml of overnight culture was used to inoculate 50 ml of media and incubated at 37° C. with shaking. The culture was permitted to grow to an OD600 of 0.4 to 0.6, cells were spun down at 3500 rpm for 10 minutes, washed, and re-suspended in buffer to an OD600 of 0.5. The OD600 was recorded, 1 ml of cells (OD600=0.5) was added to the cuvette and measured after 2-5 seconds. 20 μl NPN 0.5 mM, shaken to mix, was added and measured after 2-5 seconds. 10 ul antibiotic 100× desired final concentration was added, shaken to mix, and measured until the maximal value was reached within 1 to 5 minutes. The concentration of peptide leading to 50% of the maximum increase in NPN uptake was recorded as the P50.

SMILES strings stand for the structures. ≈ marks a conversion by molar mass, not a printed value. Read-outs that look alike come from different tables or passages of the source. Non-standard residues stand in square brackets, D forms with d. Residues, ends and D or L forms follow the SMILES beside them. Bip = N[C@@H](Cc1ccc(-c2ccccc2)cc1)C(=O)O; 1Nal = N[C@@H](Cc1cccc2ccccc12)C(=O)O; 2Nal = N[C@@H](Cc1ccc2ccccc2c1)C(=O)O

The values below come from US20060128614A1, “Antimicrobial peptides with reduced hemolysis and methods of their use” (priority 2002, published 2006).

Regarding `CC[C@H](C)[C@@H]1NC(=O)[C@H](Cc2ccc(-c3ccccc3)cc2)NC(=O)[C@H](CCCNC(=N)N)NC(=O)[C@H](C(C)C)NC(=O)[C@H](Cc2ccc(-c3ccccc3)cc2)NC(=O)[C@H](CCCNC(=N)N)NC(=O)[C@H](CCCNC(=N)N)NC(=O)[C@H](Cc2ccc(-c3ccccc3)cc2)NC(=O)[C@H](CCCCN)NC1=O` [Pac-628 C, K (Bip) R R (Bip) V R (Bip) I] (cyclo(K[Bip]RR[Bip]VR[Bip]I); ring closure inferred), the “MIC against S. aureus” value in the data set on S. aureus (18 h) came out at 64 µg/mL (≈ 43.3 µM). The “MIC against E. coli” value with E. coli (18 h) turned out to be 64 µg/mL (≈ 43.3 µM).
As for `CC[C@H](C)[C@@H]1NC(=O)[C@H](Cc2ccc3ccccc3c2)NC(=O)[C@H](CCCCN)NC(=O)[C@H](CCCNC(=N)N)NC(=O)[C@H](Cc2ccc3ccccc3c2)NC(=O)[C@H](CCCCN)NC1=O` [Pac-403 C, K (2-Nal) I K (2-Nal) R] (cyclo(K[2Nal]IK[2Nal]R); ring closure inferred), in the data set on S. aureus (18 h), the “MIC against S. aureus” value was above 64 µg/mL. The “MIC against E. coli” value in the data set with E. coli (18 h) is above 64 µg/mL.
As to `CC(C)[C@@H]1NC(=O)[C@H](Cc2ccc3ccccc3c2)NC(=O)[C@H](CCCNC(=N)N)NC(=O)[C@H](CCCNC(=N)N)NC(=O)[C@H](Cc2ccc3ccccc3c2)NC(=O)[C@H](CCCCN)NC1=O` [Pac-402 C, K (2-Nal) R R (2-Nal) V] (cyclo(K[2Nal]RR[2Nal]V); ring closure inferred), the “MIC against S. aureus” value against S. aureus (18 h) is above 64 µg/mL. Moreover, in the data set on E. coli (18 h), the “MIC against E. coli” value is above 64 µg/mL.
`CC[C@H](C)[C@@H]1NC(=O)[C@H](Cc2cccc3ccccc23)NC(=O)[C@H](CCCNC(=N)N)NC(=O)[C@H](C(C)C)NC(=O)[C@H](Cc2cccc3ccccc23)NC(=O)[C@H](CCCNC(=N)N)NC(=O)[C@H](CCCNC(=N)N)NC(=O)[C@H](Cc2cccc3ccccc23)NC(=O)[C@H](CCCCN)NC1=O` [Pac-627 C, K (1-Nal) R R (1-Nal) V R (1-Nal) I] (cyclo(K[1Nal]RR[1Nal]VR[1Nal]I); ring closure inferred): the “MIC against S. aureus” value in the data set on S. aureus (18 h) is 64 µg/mL (≈ 45.7 µM). Also, the “MIC against E. coli” value with E. coli (18 h) worked out at 64 µg/mL (≈ 45.7 µM).
For the molecule `CC[C@H](C)[C@@H]1NC(=O)[C@H](Cc2ccc3ccccc3c2)NC(=O)[C@H](CCCNC(=N)N)NC(=O)[C@H](C(C)C)NC(=O)[C@H](Cc2ccc3ccccc3c2)NC(=O)[C@H](CCCNC(=N)N)NC(=O)[C@H](CCCNC(=N)N)NC(=O)[C@H](Cc2ccc3ccccc3c2)NC(=O)[C@H](CCCCN)NC1=O` [Pac-625 C, K (2-Nal) R R (2-Nal) V R (2-Nal) I] (cyclo(K[2Nal]RR[2Nal]VR[2Nal]I); ring closure inferred), the “MIC against S. aureus” value with S. aureus (18 h) was determined as 64 µg/mL (≈ 45.7 µM). Besides, the “MIC against E. coli” value in the data set on E. coli (18 h) is 64 µg/mL (≈ 45.7 µM).
In the case of `CC[C@H](C)[C@@H]1NC(=O)[C@H](Cc2ccc3ccccc3c2)NC(=O)[C@H](CCCNC(=N)N)NC(=O)[C@H](CCCNC(=N)N)NC(=O)[C@H](Cc2ccc3ccccc3c2)NC(=O)[C@H](CCCCN)NC1=O` [Pac-401 C, K (2-Nal) R R (2-Nal) I] (cyclo(K[2Nal]RR[2Nal]I); ring closure inferred), the “MIC against S. aureus” value in the data set with S. aureus (18 h) is above 64 µg/mL. In the data set on E. coli (18 h), the “MIC against E. coli” value was above 64 µg/mL.
As to `CC[C@H](C)[C@H](NC(=O)[C@H](Cc1cccc2ccccc12)NC(=O)[C@H](CCCNC(=N)N)NC(=O)[C@@H](NC(=O)[C@H](Cc1cccc2ccccc12)NC(=O)[C@H](CCCNC(=N)N)NC(=O)[C@H](CCCNC(=N)N)NC(=O)[C@H](Cc1cccc2ccccc12)NC(=O)[C@H](CCCCN)NC(C)=O)C(C)C)C(N)=O` [Pac-627 L, K (1-Nal) R R (1-Nal) V R (1-Nal) I] (Ac-K[1Nal]RR[1Nal]VR[1Nal]I-NH2), the “MIC against S. aureus” value against S. aureus and against S. aureus (18 h) was 4 µg/mL (≈ 2.74 µM) in each case. Also, the “MIC against E. coli” value in the data set on E. coli and in the data set with E. coli (18 h) was 4 µg/mL (≈ 2.74 µM) each time.
In the case of `CC[C@H](C)[C@H](NC(=O)[C@H](Cc1ccc2ccccc2c1)NC(=O)[C@H](CCCCN)NC(C)=O)C(=O)N[C@@H](CCCCN)C(=O)N[C@@H](Cc1ccc2ccccc2c1)C(=O)N[C@@H](CCCNC(=N)N)C(N)=O` [Pac-403 L, K (2-Nal) I K (2-Nal) R] (Ac-K[2Nal]IK[2Nal]R-NH2), the “MIC against S. aureus” value in the data set with S. aureus (18 h) stood at 16 µg/mL (≈ 16.3 µM). For the same molecule, in data set [1], the “% lysis @ 5 μg/ml” value is 0.74%, the “% lysis @ 50 μg/ml” value is 7.2% and the “% lysis @ 500 μg/ml” value amounted to 15%. The “MIC against E. coli” value with E. coli (18 h) amounted to 24 µg/mL (≈ 24.5 µM).
On to `CC[C@H](C)[C@H](NC(=O)[C@H](Cc1ccc2ccccc2c1)NC(=O)[C@H](CCCNC(=N)N)NC(=O)[C@H](CCCNC(=N)N)NC(=O)[C@H](Cc1ccc2ccccc2c1)NC(=O)[C@H](CCCCN)NC(C)=O)C(N)=O` [Pac-401 L, K (2-Nal) R R (2-Nal) I] (Ac-K[2Nal]RR[2Nal]I-NH2), for which the “MIC against S. aureus” value with S. aureus (18 h) was determined as 8 µg/mL (≈ 7.94 µM). Moreover, in data set [1], the “% lysis @ 5 μg/ml” value came to 0.85%, the “% lysis @ 50 μg/ml” value stood at 6.8% and the “% lysis @ 500 μg/ml” value turned out to be 14%. The “MIC against E. coli” value in the data set on E. coli (18 h) came out at 16 µg/mL (≈ 15.9 µM).
`CC[C@H](C)[C@H](NC(=O)[C@H](Cc1ccc(-c2ccccc2)cc1)NC(=O)[C@H](CCCNC(=N)N)NC(=O)[C@@H](NC(=O)[C@H](Cc1ccc(-c2ccccc2)cc1)NC(=O)[C@H](CCCNC(=N)N)NC(=O)[C@H](CCCNC(=N)N)NC(=O)[C@H](Cc1ccc(-c2ccccc2)cc1)NC(=O)[C@H](CCCCN)NC(C)=O)C(C)C)C(N)=O` [Pac-628 L, K (Bip) R R (Bip) V R (Bip) I] (Ac-K[Bip]RR[Bip]VR[Bip]I-NH2): the “MIC against S. aureus” value in the data set on S. aureus and with S. aureus (18 h) was 4 µg/mL (≈ 2.6 µM) throughout. The “MIC against E. coli” value in the data set with E. coli and against E. coli (18 h) was 2 µg/mL (≈ 1.3 µM) in each case. In addition, the “P50 (concentration of peptide leading to 50% of the maximum increase in NPN uptake)” value in data set [2] amounted to 4 µg/mL.
Take `CC[C@H](C)[C@H](NC(=O)[C@H](Cc1ccc2ccccc2c1)NC(=O)[C@H](CCCNC(=N)N)NC(=O)[C@@H](NC(=O)[C@H](Cc1ccc2ccccc2c1)NC(=O)[C@H](CCCNC(=N)N)NC(=O)[C@@H](NC(=O)[C@H](Cc1ccc2ccccc2c1)NC(=O)[C@H](CCCCN)NC(C)=O)[C@@H](C)CC)C(C)C)C(N)=O` [Pac-629, Ac-K(2-Nal) IR(2-Nal) VR(2-Nal) I-NH2] (Ac-K[2Nal]IR[2Nal]VR[2Nal]I-NH2): the “MIC against S. aureus” value against S. aureus was 4 µg/mL (≈ 2.82 µM). Further, in the data set on E. coli, the “MIC against E. coli” value was 8 µg/mL (≈ 5.65 µM).
Regarding `CC[C@H](C)[C@@H]1NC(=O)[C@H](CCCCN)NC(=O)[C@H](Cc2ccc3ccccc3c2)NC(=O)[C@H](CCCNC(=N)N)NC(=O)[C@H](CCCNC(=N)N)NC(=O)[C@H](Cc2ccc3ccccc3c2)NC(=O)[C@H](C(C)C)NC(=O)[C@H](CCCNC(=N)N)NC(=O)[C@H](Cc2ccc3ccccc3c2)NC1=O` [Pac-626 C, I (2-Nal) R V (2-Nal) R R (2-Nal) K] (cyclo(I[2Nal]RV[2Nal]RR[2Nal]K); ring closure inferred), in the data set with S. aureus (18 h), the “MIC against S. aureus” value came to 64 µg/mL (≈ 45.7 µM). Also, the “MIC against E. coli” value with E. coli (18 h) was 64 µg/mL (≈ 45.7 µM).
Consider `CC(=O)N[C@@H](CCCCN)C(=O)N[C@@H](Cc1ccc2ccccc2c1)C(=O)N[C@@H](CCCNC(=N)N)C(=O)N[C@@H](CCCNC(=N)N)C(=O)N[C@@H](Cc1ccc2ccccc2c1)C(=O)N[C@H](C(N)=O)C(C)C` [Pac-402 L, K (2-Nal) R R (2-Nal) V] (Ac-K[2Nal]RR[2Nal]V-NH2; N-terminus and C-terminus assumed), for which the “MIC against S. aureus” value against S. aureus (18 h) is 16 µg/mL (≈ 16.1 µM). Further, in the data set on E. coli (18 h), the “MIC against E. coli” value came out at 24 µg/mL (≈ 24.2 µM). Also, the “P50 (concentration of peptide leading to 50% of the maximum increase in NPN uptake)” value in data set [2] was determined as 16 µg/mL.
In the case of `CC[C@H](C)[C@H](NC(=O)[C@H](Cc1ccc2ccccc2c1)NC(=O)[C@H](CCCCN)NC(=O)[C@@H](NC(=O)[C@H](Cc1ccc2ccccc2c1)NC(=O)[C@H](CCCCN)NC(=O)[C@@H](NC(=O)[C@H](Cc1ccc2ccccc2c1)NC(=O)[C@H](CCCCN)NC(C)=O)[C@@H](C)CC)[C@@H](C)CC)C(N)=O` [Pac-621, Ac-K(2-Nal) IK(2-Nal) IK(2-Nal) I-NH2] (Ac-K[2Nal]IK[2Nal]IK[2Nal]I-NH2), the “MIC against S. aureus” value with S. aureus was found to be 16 µg/mL (≈ 11.6 µM). The “MIC against E. coli” value in the data set on E. coli worked out at 8 µg/mL (≈ 5.82 µM).
